Biological target: Human CARM1 (PRMT4) (Homo sapiens (Human), UniProt Q86X55)
Assay: CARM1 enzyme assay on peptide substrate (3H-SAM Flashplate)
Settings: Biochemical potencies, classification codes; read-out: Biochem IC50

Sequence of Human CARM1 (PRMT4) (Q86X55 other isoform, or with tags, fused parts or gaps isoform Q86X55-1): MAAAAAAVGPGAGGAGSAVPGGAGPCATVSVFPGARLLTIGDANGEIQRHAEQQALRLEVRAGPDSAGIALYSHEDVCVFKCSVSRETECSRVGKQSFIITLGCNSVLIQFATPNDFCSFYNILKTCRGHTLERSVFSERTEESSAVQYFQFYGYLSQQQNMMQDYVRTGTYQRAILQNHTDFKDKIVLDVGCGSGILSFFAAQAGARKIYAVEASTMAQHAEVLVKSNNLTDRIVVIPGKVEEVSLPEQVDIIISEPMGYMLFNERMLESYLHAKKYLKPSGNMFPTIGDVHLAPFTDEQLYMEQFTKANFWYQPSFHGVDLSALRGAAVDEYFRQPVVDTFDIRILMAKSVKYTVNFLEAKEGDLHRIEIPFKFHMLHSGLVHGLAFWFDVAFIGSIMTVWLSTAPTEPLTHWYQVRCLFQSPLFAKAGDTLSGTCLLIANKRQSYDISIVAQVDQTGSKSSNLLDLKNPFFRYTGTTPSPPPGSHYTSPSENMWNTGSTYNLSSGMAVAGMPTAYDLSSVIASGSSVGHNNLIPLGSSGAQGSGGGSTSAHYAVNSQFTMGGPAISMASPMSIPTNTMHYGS

IC50 [nM] | SMILES
< 100 | CCOC(=O)N1CCC2(CC1)CN(c1nc(-c3cc(OC[C@H](O)CNC)ccc3F)nc(-c3c(C)noc3C)c1C)C2 [Example 282-3]
< 100 | CNCC(O)COc1cccc(-c2nc(NCC3CCN(C4CC4)CC3)c(C)c(-c3c(C)noc3C)n2)c1 (stereo not drawn) [Example 283-1a]
< 100 | CNC[C@@H](O)COc1ccc(Cl)c(-c2nc(-c3c(C)noc3C)c(C)c(N3CC4(CCN(CC(F)F)CC4)C3)n2)c1 [Example 283-3]
< 100 | CNCC(O)COc1cccc(-c2nc(OCC3CCN(C(=O)OC)CC3)c(C)c(-c3c(C)noc3C)n2)c1 (stereo not drawn) [Example 284-1a]
< 100 | CNC[C@@H](O)COc1ccc(Cl)c(-c2nc(-c3c(C)noc3C)c(C)c(N3CC4(CCN(C(=O)OC(C)C)CC4)C3)n2)c1 [Example 284-3]
< 100 | CNCC(O)COc1cccc(-c2nc(OCC3CCN(C(=O)N(C)C)CC3)c(C)c(-c3c(C)noc3C)n2)c1 (stereo not drawn) [Example 285-1a]
< 100 | CCOC(=O)N1CCC2(CC1)CN(c1nc(-c3cc(OC[C@H](O)CNC)ccc3Cl)nc(-c3c(C)noc3C)c1C)C2 [Example 285-3]
< 100 | CNCC(O)COc1cccc(-c2nc(OCC3CCN(S(C)(=O)=O)CC3)c(C)c(-c3c(C)noc3C)n2)c1 (stereo not drawn) [Example 286-1a]
< 100 | CNC[C@@H](O)COc1ccc(Cl)c(-c2nc(-c3c(C)noc3C)c(C)c(N3CC4(CCN(C(=O)OC(C)C)C4)C3)n2)c1 [Example 286-3]
< 100 | CNCC(O)COc1cccc(-c2nc(OCC3CCN(C(C)=O)CC3)c(C)c(-c3c(C)noc3C)n2)c1 (stereo not drawn) [Example 287-1a]
< 100 | CCOC(=O)N1CCC2(C1)CN(c1nc(-c3cc(OC[C@H](O)CNC)ccc3Cl)nc(-c3c(C)noc3C)c1C)C2 [Example 287-3]
< 100 | CNCC(O)COc1cccc(-c2nc(OCC3CCN(CC(F)F)CC3)c(C)c(-c3c(C)noc3C)n2)c1 (stereo not drawn) [Example 288-1a]
< 100 | CNC[C@@H](O)COc1ccc(Cl)c(-c2nc(-c3c(C)noc3C)c(C)c(N3CCC4(CCOC4)C3)n2)c1 (stereo partly drawn) [Example 288-3]
< 100 | CNCC(O)COc1cccc(-c2nc(OCC3CCNCC3)c(C)c(-c3c(C)noc3C)n2)c1 (stereo not drawn) [Example 289-1a]
< 100 | CNC[C@@H](O)COc1ccc(Cl)c(-c2nc(-c3c(C)noc3C)c(C)c(N3CCC4(CCCO4)C3)n2)c1 (stereo partly drawn) [Example 289-3]
< 100 | CNCC(O)COc1cccc(-c2nc(NC3CCOC(C)(C)C3)c(C)c(-c3c(C)noc3C)n2)c1 (stereo not drawn) [Example 290-1a]
< 100 | CNC[C@@H](O)COc1ccc(Cl)c(-c2nc(-c3c(C)noc3C)c(C)c(N3CC4(CCCCO4)C3)n2)c1 [Example 290-3]
< 100 | CNCC(O)COc1cccc(-c2nc(N[C@@H]3CCOC3=O)c(C)c(-c3c(C)noc3C)n2)c1 (stereo partly drawn) [Example 291-1a]
< 100 | CNCC(O)COc1cccc(-c2nc(NC3CCC3)c(C)c(-c3c(C)noc3C)n2)c1 (stereo not drawn) [Example 292-1a]
< 100 | CNCC(O)COc1cccc(-c2nc(NC3CC3)c(C)c(-c3c(C)noc3C)n2)c1 (stereo not drawn) [Example 293-1a]
< 100 | CNC[C@@H](O)COc1ccc(Cl)c(-c2nc(-c3c(C)noc3C)c(C)c(N3Cc4cn(S(C)(=O)=O)nc4C3)n2)c1 [Example 293-3]
< 100 | CNCC(O)COc1cccc(-c2nc(-c3c(C)noc3C)c(C)c(N3CCC4(CC3)CN(C3CC3)C4)n2)c1 (stereo not drawn) [Example 294-1a]

IC50 [nM] | SMILES
< 100 | CNC[C@@H](O)COc1ccc(F)c(-c2nc(-c3c(C)noc3C)c(Cl)c(N3CC4(CCOCC4)C3)n2)c1 [Example 294-3]
< 100 | CCOC(=O)N1CC2(CCCN(c3nc(-c4cccc(OCC(O)CNC)c4)nc(-c4c(C)noc4C)c3C)C2)C1 (stereo not drawn) [Example 295-1a]
< 100 | CNC[C@@H](O)COc1ccc(F)c(-c2nc(-c3c(C)noc3C)c(Cl)c(N3Cc4nccnc4C3)n2)c1 [Example 295-3]
< 100 | CCS(=O)(=O)N1CC2(CCCN(c3nc(-c4cccc(OCC(O)CNC)c4)nc(-c4c(C)noc4C)c3C)C2)C1 (stereo not drawn) [Example 296-1a]
< 100 | CNC[C@@H](O)COc1ccc(Cl)c(-c2nc(-c3c(C)noc3C)c(C)c(N3Cc4cc(C)cnc4C3)n2)c1 [Example 296-3]
< 100 | CNCC(O)COc1cccc(-c2nc(-c3c(C)noc3C)c(C)c(N3CCCC4(CN(C(=O)N(C)C)C4)C3)n2)c1 (stereo not drawn) [Example 297-1a]
< 100 | CNC[C@@H](O)COc1ccc(Cl)c(-c2nc(-c3c(C)noc3C)c(F)c(N3Cc4nccnc4C3)n2)c1 [Example 297-3]
< 100 | CNCC(O)COc1cccc(-c2nc(-c3c(C)noc3C)c(C)c(N3CC(CO)(CNC(=O)N(C)C)C3)n2)c1 (stereo not drawn) [Example 298-1a]
< 100 | CNCC(O)COc1cccc(-c2nc(-c3c(C)noc3C)c(C)c(N3CC4(CN(C(=O)OC)C4)C3)n2)c1 (stereo not drawn) [Example 299-1a]
< 100 | CNCC(O)COc1cccc(-c2nc(NCC3(OC)CCOCC3)c(C)c(-c3c(C)noc3C)n2)c1 (stereo not drawn) [Example 300-1a]
< 100 | CNCC(O)COc1cccc(-c2nc(NCC3(N4CCC4)CCOCC3)c(C)c(-c3c(C)noc3C)n2)c1 (stereo not drawn) [Example 301-1a]
< 100 | CNCC(O)COc1cccc(-c2nc(NCC3(N4CC(F)(F)C4)CCOCC3)c(C)c(-c3c(C)noc3C)n2)c1 (stereo not drawn) [Example 302-1a]
< 100 | CNCC(O)COc1cccc(-c2nc(OCC3CCN(C4CC4)CC3)c(C)c(-c3c(C)noc3C)n2)c1 (stereo not drawn) [Example 303-1a]
< 100 | CNC[C@H](O)COc1ccc(Cl)c(-c2nc(NC3CCN(C(=O)OC)CC3)c(Cl)c(-c3c(C)noc3C)n2)c1 [Example 305-1a]
< 100 | CNCC(O)COc1cccc(-c2nc(NC[C@@H]3CN(C(=O)OC)CCO3)c(C)c(-c3c(C)noc3C)n2)c1 (stereo partly drawn) [Example 306-1a]
< 100 | CNCC(O)COc1cccc(-c2nc(N[C@@H]3CCNC3)c(C)c(-c3c(C)noc3C)n2)c1 (stereo partly drawn) [Example 307-1a]
< 100 | CNCC(O)COc1cccc(-c2nc(-c3c(C)noc3C)c(C)c(N(C)C)n2)c1 (stereo not drawn) [Example 308-1a]
< 100 | CNCC(O)COc1cccc(-c2nc(-c3c(C)noc3C)c(C)c(N3CC4(CN(C(=O)N(C)C)C4)C3)n2)c1 (stereo not drawn) [Example 309-1a]
< 100 | CNCC(O)COc1cc(Cl)cc(-c2nc(N[C@@H]3CCOC3)c(C)c(-c3ccncc3)n2)c1 (stereo partly drawn) [Example 331-1a]
< 100 | CNCC(O)COc1cccc(-c2nc(N[C@@H]3CCOC3)c(C)c(-c3ccncc3)n2)c1 (stereo partly drawn) [Example 332-1a]
< 100 | CNCC(O)COc1cc(Cl)cc(-c2nc(-c3ccncc3)c(C)c(N(C)[C@H]3CCOC3)n2)c1 (stereo partly drawn) [Example 334-1a]
< 100 | CNCC(O)COc1cccc(-c2nc(NC3CCOC3)c(C)c(-c3cn(C)nn3)n2)c1 (stereo not drawn) [Example 335-1a]

IC50 [nM] | SMILES
< 100 | CNCC(O)COc1cccc(-c2nc(N[C@@H]3CCOC3)c(C)c(-c3cn[nH]c3)n2)c1 (stereo partly drawn) [Example 338-1a]
< 100 | CNCC(O)COc1cccc(-c2nc(-c3ccncc3)c(C)c(N(C)[C@@H]3CCOC3)n2)c1 (stereo partly drawn) [Example 339-1a]
< 100 | CNCC(O)COc1cccc(-c2nc(N[C@@H]3CCOC3)c(C)c(-c3cncc(C(=O)OC)c3)n2)c1 (stereo partly drawn) [Example 340-1a]
< 100 | CNCC(O)COc1cccc(-c2nc(N[C@@H]3CCOC3)c(C)c(-c3cncc(C#N)c3)n2)c1 (stereo partly drawn) [Example 341-1a]
< 100 | CNCC(O)COc1cccc(-c2nc(N[C@@H]3CCOC3)c(C)c(-c3cncnc3)n2)c1 (stereo partly drawn) [Example 350-1a]
< 100 | CNCC(O)COc1cccc(-c2nc(NC3CCOC3)c(C)c(N3CCN[C@@H](C)C3)n2)c1 (stereo partly drawn) [Example 351-1a]
< 100 | CNCC(O)COc1cccc(-c2nc(NC3CCOC3)c(C)c(N3CCNC[C@H]3C)n2)c1 (stereo partly drawn) [Example 352-1a]
< 100 | CNCC(O)COc1cccc(-c2nc(N[C@@H]3CCOC3)c(C)c(-c3cnc4[nH]ccc4c3)n2)c1 (stereo partly drawn) [Example 355-1a]
< 100 | CNCC(O)COc1cccc(-c2nc(N[C@@H]3CCOC3)c(C)c(-c3cnc(OC)nc3)n2)c1 (stereo partly drawn) [Example 356-1a]
< 100 | CNCC(O)COc1cccc(-c2nc(N[C@@H]3CCOC3)c(C)c(N3CCC[C@@H](O)C3)n2)c1 (stereo partly drawn) [Example 358-1a]
< 100 | CNCC(O)COc1cccc(-c2nc(N[C@@H]3CCOC3)c(C)c(N3CCn4ccnc4C3)n2)c1 (stereo partly drawn) [Example 359-1a]
< 100 | CNCC(O)COc1cccc(-c2nc(NCCCCl)c(C)c(N[C@@H]3CCOC3)n2)c1 (stereo partly drawn) [Example 366-1a]
< 100 | CNCC(O)COc1cccc(-c2nc(N[C@@H]3CCOC3)c(C)c(N3CCC(N4CCOCC4)CC3)n2)c1 (stereo partly drawn) [Example 367-1a]
< 100 | CNCC(O)COc1cccc(-c2nc(N[C@@H]3CCOC3)c(C)c(N3CC[C@H](N(C)C)C3)n2)c1 (stereo partly drawn) [Example 368-1a]
< 100 | CNCC(O)COc1cccc(-c2nc(N[C@@H]3CCOC3)c(C)c(N3CC[C@@H](OC)C3)n2)c1 (stereo partly drawn) [Example 369-1a]
< 100 | CNCC(O)COc1cccc(-c2nc(N[C@@H]3CCOC3)c(C)c(N3CCC(OC)CC3)n2)c1 (stereo partly drawn) [Example 370-1a]
< 100 | CNCC(O)COc1cccc(-c2nc(N[C@@H]3CCOC3)c(Cl)c(N3CCOCC3)n2)c1 (stereo partly drawn) [Example 376-1a]
< 100 | CNCC(O)COc1cccc(-c2nc(N[C@@H]3CCOC3)c(C)c(N3CCC3)n2)c1 (stereo partly drawn) [Example 377-1a]
< 100 | CNCC(O)COc1cccc(-c2nc(N[C@@H]3CCOC3)c(C)c(-n3nc(C)cc3C)n2)c1 (stereo partly drawn) [Example 382-1a]
< 100 | CNCC(O)COc1cccc(-c2nc(N[C@@H]3CCOC3)c(C)c(N3CCN(CC(=O)N(C)C)CC3)n2)c1 (stereo partly drawn) [Example 391-1a]
< 100 | CNCC(O)COc1cccc(-c2nc(N[C@@H]3CCOC3)c(C)c(N3CC[C@@H](N(C)C)C3)n2)c1 (stereo partly drawn) [Example 392-1a]

SMILES | IC50 [nM]
CNCC(O)COc1cccc(-c2nc(N[C@H]3CCOC3)c(C)c(N3CCC(O)CC3)n2)c1 (stereo partly drawn) [Example 362-1a] | < 100
CNCC(O)COc1cccc(-c2nc(N[C@H]3CCOC3)c(C)c(C(=O)N(C)CC3CCOCC3)n2)c1 (stereo partly drawn) [Example 363-1a] | 100 to 1000
CNCC(O)COc1cccc(-c2nc(N[C@@H]3CCOC3)c(C)c(N(C)C3CCN(C)CC3)n2)c1 (stereo partly drawn) [Example 379-1a] | < 100
CNCC(O)COc1cccc(-c2nc(N[C@H]3CCOC3)c(C)c(-n3nc(C)cc3C)n2)c1 (stereo partly drawn) [Example 381-1a] | < 100

— patent publication US20230279020A9, “CARM1 INHIBITORS AND USES THEREOF” (Epizyme, Inc., priority 2013, published 2023)
